According to patent publication US20260356820A1, “Pyrrolidine and Imidazolidine Based DNA Polymerase Theta Inhibitors and Use Thereof” (Thomas Jefferson University, priority 2022, published 2026):

Each compound was assayed against T1, human Polq polymerase domain (Homo sapiens, UniProt O75417) (assay: Cy5 fluorescence assay of Polq polymerase domain inhibition). Conditions: not given.
T1 sequence (O75417 1792-2590): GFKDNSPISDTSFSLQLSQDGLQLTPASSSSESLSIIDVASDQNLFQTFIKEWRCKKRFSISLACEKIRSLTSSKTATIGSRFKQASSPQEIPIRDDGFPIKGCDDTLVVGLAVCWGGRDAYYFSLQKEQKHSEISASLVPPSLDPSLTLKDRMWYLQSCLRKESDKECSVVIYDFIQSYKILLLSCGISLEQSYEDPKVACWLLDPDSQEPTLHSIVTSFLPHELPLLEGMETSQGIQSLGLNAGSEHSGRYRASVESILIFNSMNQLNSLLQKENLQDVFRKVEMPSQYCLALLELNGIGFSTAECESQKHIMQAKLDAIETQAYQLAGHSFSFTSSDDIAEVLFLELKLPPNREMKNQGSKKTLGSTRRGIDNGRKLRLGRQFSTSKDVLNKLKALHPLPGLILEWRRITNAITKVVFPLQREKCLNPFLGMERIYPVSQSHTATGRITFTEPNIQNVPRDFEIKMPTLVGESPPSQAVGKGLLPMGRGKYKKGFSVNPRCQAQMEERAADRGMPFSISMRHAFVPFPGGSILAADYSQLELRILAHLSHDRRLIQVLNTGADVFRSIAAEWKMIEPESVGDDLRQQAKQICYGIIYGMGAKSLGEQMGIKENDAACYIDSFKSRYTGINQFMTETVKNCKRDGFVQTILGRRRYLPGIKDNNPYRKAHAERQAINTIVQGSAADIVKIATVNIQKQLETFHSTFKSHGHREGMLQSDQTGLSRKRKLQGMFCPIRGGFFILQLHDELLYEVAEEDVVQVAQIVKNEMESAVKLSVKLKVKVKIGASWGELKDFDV
Type: biochemical
Experimental: The following Cy5 fluorescence assay was used to measure the ability of compounds to inhibit Polq polymerase domain in vitro. The fluorescent based assay was performed as follows: 60 nM of the pre-annealed primer-template containing a 5′ Cy5 fluorophore conjugated template strand (SEQ ID NO:3: 5′-/5Cy5/[…]-3′), a downstream complementary oligo conjugated with a 3′ Blackhole quencher (SEQ ID NO:4: 5′-CTAAGCTCACAGTG/3IAbRQSp/-3′) and a primer strand (SEQ ID NO:5: 5′-CTGTCCTGCATGATG-3′) was mixed with 50 uM 2′-deoxyribonucleoside triphosphates (dNTPs), 0.1 mg/mL Bovine serum albumin (BSA), 0.01% NP-40, 10% glycerol, 1 mM dithiothreitol (DTT), 10 mM MgCl2, 25 mM TrisHCl pH 7.8 in the presence of 2.5% DMSO with or without various concentrations (7-point dilution series) of Polq small molecule inhibitors represented by Formula I at 37 °C in a volume of 40 μL.

Compound | IC50
CN(C(=O)Oc1c(N2CCN(CCN3CCOCC3)C2=O)cc(C(F)(F)F)cc1C(F)(F)F)c1ccc(F)cc1 [Example 1, 2-(3-(2-morpholinoethyl)-2-oxoimidazolidin-1-yl)-4,6-bis(trifluoromethyl)phenyl (4-fluorophenyl)(methyl)carbamate] | 12 nM
CC(=O)N1CCN(CCN2CCN(c3cc(C(F)(F)F)cc(C(F)(F)F)c3OC(=O)N(C)c3ccc(F)cc3)C2=O)CC1 [Example 2, 2-(3-(2-(4-acetylpiperazin-1-yl)ethyl)-2-oxoimidazolidin-1-yl)-4,6-bis(trifluoromethyl)phenyl (4-fluorophenyl)(methyl)carbamate] | 4.5 nM
CN(C(=O)Oc1c(N2CCN(CCN3CCC(C#N)CC3)C2=O)cc(C(F)(F)F)cc1C(F)(F)F)c1ccc(F)cc1 [Example 3, 2-(3-(2-(4-cyanopiperidin-1-yl)ethyl)-2-oxoimidazolidin-1-yl)-4,6-bis(trifluoromethyl)phenyl (4-fluorophenyl)(methyl)carbamate] | 6 nM
CN(C(=O)Oc1c(N2CCNC2=O)cc(C(F)(F)F)cc1C(F)(F)F)c1ccc(F)cc1 [Example 4, 2,4-bis(trifluoromethyl)-6-(2-oxoimidazolidin-1-yl)phenyl (4-fluorophenyl)(methyl)carbamate] | 3.4 nM
CN(C(=O)Oc1c(N2CCNC2=O)cc(C(F)(F)F)cc1C(F)(F)F)c1ccc(F)c(Cl)c1F [Example 7, 2,4-bis(trifluoromethyl)-6-(2-oxoimidazolidin-1-yl)phenyl (3-chloro-2,4-difluorophenyl)(methyl)carbamate] | 4 nM
CN1CCN(c2cc(C(F)(F)F)cc(C(F)(F)F)c2OC(=O)N(C)c2ccc(F)c(Cl)c2F)C1=O [Example 8, 2,4-bis(trifluoromethyl)-6-(3-methyl-2-oxoimidazolidin-1-yl)phenyl (3-chloro-2,4-difluorophenyl)(methyl)carbamate] | 3.4 nM
CN(C(=O)Oc1c(N2CCNC2=O)cc(C(F)(F)F)cc1C(F)(F)F)c1cc(Cl)c(F)cc1F [Example 9, 2,4-bis(trifluoromethyl)-6-(2-oxoimidazolidin-1-yl)phenyl (5-chloro-2,4-difluorophenyl)(methyl)carbamate] | 21 nM
CN(C(=O)Oc1c(N2CCCC2=O)cc(C(F)(F)F)cc1C(F)(F)F)c1ccc(F)cc1 [Example 10, 2,4-bis(trifluoromethyl)-6-(2-oxopyrrolidin-1-yl)phenyl (4-fluorophenyl)(methyl)carbamate] | 21 nM
Cc1cc(C(F)(F)F)cc(N2C[C@H](O)CC2=O)c1OC(=O)N(C)c1ccc(F)cc1 [Example 12, (R)-2-(4-hydroxy-2-oxopyrrolidin-1-yl)-6-methyl-4-(trifluoromethyl)phenyl (4-fluorophenyl)(methyl)carbamate] | 4.4 nM
Cc1cc(C(F)(F)F)cc(N2CCNC2=O)c1OC(=O)N(C)c1ccc(F)cc1 [Example 13, 2-methyl-6-(2-oxoimidazolidin-1-yl)-4-(trifluoromethyl)phenyl(4-fluorophenyl)(methyl)carbamate] | 29 nM
Cc1cc(C(F)(F)F)cc(N2CCNC2=O)c1OC(=O)N(C)c1ccc(F)c(Cl)c1 [Example 14, 2-methyl-6-(2-oxoimidazolidin-1-yl)-4-(trifluoromethyl)phenyl (3-chloro-4-fluorophenyl)(methyl)carbamate] | 45 nM
CN(C(=O)Oc1c(N2C(=O)NC(O)C2O)cc(C(F)(F)F)cc1C(F)(F)F)c1ccc(F)cc1 (stereo not drawn) [Example 16, 2-(4,5-dihydroxy-2-oxoimidazolidin-1-yl)-4,6-bis(trifluoromethyl)phenyl N-(4-fluorophenyl)-N-methylcarbamate] | 5.4 nM
C[C@@H]1CCC(=O)N1c1cc(C(F)(F)F)cc(C(F)(F)F)c1OC(=O)N(C)c1ccc(F)cc1 [Example 17, 2-[(2R)-2-methyl-5-oxopyrrolidin-1-yl]-4,6-bis(trifluoromethyl)phenyl N-(4-fluorophenyl)-N-methylcarbamate] | 1000 nM
CN(C(=O)Oc1c(N2CC(C(F)(F)F)NC2=O)cc(C(F)(F)F)cc1C(F)(F)F)c1ccc(F)cc1 (stereo not drawn) [Example 18, 2-(2-oxo-4-(trifluoromethyl)imidazolidin-1-yl)-4,6-bis(trifluoromethyl)phenyl (4-fluorophenyl)(methyl)carbamate] | 22 nM
CN(C(=O)Oc1c(N2CCN(CCOS(N)(=O)=O)C2=O)cc(C(F)(F)F)cc1C(F)(F)F)c1ccc(F)cc1 [Example 21, 2-{2-oxo-3-[2-(sulfamoyloxy)ethyl]imidazolidin-1-yl}-4,6-bis(trifluoromethyl)phenyl N-(4-fluorophenyl)-N-methylcarbamate] | 1.9 nM
CN(C(=O)Oc1c(N2CCN(CC3(O)CN(C(=O)OC(C)(C)C)C3)C2=O)cc(C(F)(F)F)cc1C(F)(F)F)c1ccc(F)cc1 [Example 23, tert-butyl 3-((3-(2-(((4-fluorophenyl)(methyl)carbamoyl)oxy)-3,5-bis(trifluoromethyl)phenyl)-2-oxoimidazolidin-1-yl)methyl)-3-hydroxyazetidine-1-carboxylate] | 1.8 nM
CN(C(=O)Oc1c(N2CCN(CC3CO3)C2=O)cc(C(F)(F)F)cc1C(F)(F)F)c1ccc(F)cc1 (stereo not drawn) [Example 25, 2,4-bis(trifluoromethyl)-6-(3-((oxiran-2-yl)methyl)-2-oxoimidazolidin-1-yl)phenyl (4-fluorophenyl)(methyl)carbamate] | 5.8 nM
CN(C(=O)Oc1c(N2CCNC2=O)cc(C(F)(F)F)cc1C(F)(F)F)c1ccc(OC(F)F)cc1 [Example 26, 2-(2-oxoimidazolidin-1-yl)-4,6-bis(trifluoromethyl)phenyl (4-(difluoromethoxy)phenyl)(methyl)carbamate] | 48 nM

Same assay, conditions: 5 nM Polq polymerase domain (residues 1792-2590), 60 nM primer-template, 50 uM dNTPs, 37 °C, 18 min; read-out: IC50 (nM) Polq

Compound | IC50
CN1CCN(c2cc(C(F)(F)F)cc(C(F)(F)F)c2OC(=O)N(C)c2ccc(F)cc2)C1=O [Example 5, 2,4-bis(trifluoromethyl)-6-(3-methyl-2-oxoimidazolidin-1-yl)phenyl (4-fluorophenyl)(methyl)carbamate] | 6 nM
CN(C(=O)Oc1c(N2CCCC2)cc(C(F)(F)F)cc1C(F)(F)F)c1ccc(F)cc1 [Example 11, 2,4-bis(trifluoromethyl)-6-(pyrrolidin-1-yl)phenyl 4-fluorophenylmethylcarbamate] | 15 nM
Cc1cc(C(F)(F)F)cc(N2CCOC2=O)c1OC(=O)N(C)c1ccc(F)cc1 [Example 15, 4-(trifluoromethyl)-2-methyl-6-(2-oxooxazolidin-3-yl)phenyl 4-fluorophenylmethylcarbamate] | 80 nM
CN(C(=O)Oc1c(N2CC[C@H](O)C2=O)cc(C(F)(F)F)cc1C(F)(F)F)c1ccc(F)cc1 [Example 19, 2,4-bis(trifluoromethyl)-6-((S)-3-hydroxy-2-oxopyrrolidin-1-yl)phenyl 4-fluorophenylmethylcarbamate] | 16 nM
CC(O)CN1CCN(c2cc(C(F)(F)F)cc(C(F)(F)F)c2OC(=O)N(C)c2ccc(F)cc2)C1=O (stereo not drawn) [Example 20, 2,4-bis(trifluoromethyl)-6-(3-(2-hydroxypropyl)-2-oxoimidazolidin-1-yl)phenyl 4-fluorophenylmethylcarbamate] | 2.4 nM
CN(C)CC(O)CN1CCN(c2cc(C(F)(F)F)cc(C(F)(F)F)c2OC(=O)N(C)c2ccc(F)cc2)C1=O (stereo not drawn) [Example 24, 2-(3-(3-(dimethylamino)-2-hydroxypropyl)-2-oxoimidazolidin-1-yl)-4,6-bis(trifluoromethyl)phenyl (4-fluorophenyl)(methyl)carbamate] | 6.7 nM
